Measured values taken from patent publication US6384015B1, “Selective lysis of malaria infected erythrocytes” (priority 1997, dated 2002).

Test system: P. falciparum (New Guinean isolate D10)
Assay: Parasitemia assay in P. falciparum infected human erythrocytes
Format: cell-based
Experimental: P. falciparum (New Guinean isolate D10) cultures were grown and maintained substantially as described in Trager et al. (1976) Science 193, 673-675. Human type O+ blood was obtained from healthy donors. Magainin 2 (Matsuzaki et al., 1995, supra) was made by solid phase peptide synthesis. Parasitemia assays were performed substantially as described in Pasvol et al (1978) Ann Trop Med Parasitol 72, 87-92 and Magowan et al. (1995) Blood 86, 3196-3204. […] Each group was done in triplicate and 7,500 erythrocytes were counted for each data point. […]
FIG. 1 provides a graphical representation of the data showing the inhibition of parasitemia in infected human erythrocytes over the foregoing time courses and concentrations. In the figure, ● represents data points for the untreated cells, ▪ represents data points for cells treated at 10 uM, ▴ at 25 uM, and ▾ at 50 uM.

Magainin 2
parasitemia (10 uM magainin 2, Day 1): 0.92 | parasitemia (10 uM magainin 2, Day 2): 1.88 | parasitemia (10 uM magainin 2, Day 3): 2.40 | parasitemia (10 uM magainin 2, Day 4): 4.52 | parasitemia (25 uM magainin 2, Day 1): 0.41 | parasitemia (25 uM magainin 2, Day 2): 1.88 | parasitemia (25 uM magainin 2, Day 3): 1.61 | parasitemia (25 uM magainin 2, Day 4): 3.68 | parasitemia (50 uM magainin 2, Day 1): 0.52 | parasitemia (50 uM magainin 2, Day 2): 1.43 | parasitemia (50 uM magainin 2, Day 3): 1.96 | parasitemia (50 uM magainin 2, Day 4): 2.87 | inhibition of parasitemia in infected human erythrocytes (10, 25 and 50 uM, over the time course): dose and time dependent inhibitions of parasitemia | selective lysis of infected versus non-infected erythrocytes (P. falciparum infected blood-borne human erythrocytes, Examples 1 and 2): particular effective at selectively lysing P. falciparum infected blood-borne human erythrocytes as compared with non-infected cells
